From patent US20020198215A1 (priority 2000, published 2002)

Columns and labels:
[1] = Calculation of the release rate for a terazosin transdermal delivery system from literature pharmacokinetic data; details: product of steady state concentration and clearance rate
Source text: Therefore, an equal dose is required to be delivered transdermally. […] The largest desirable surface area for a transdermal patch is about 40 cm^2. […] To account for drug elimination, further pharmacokinetic data and physiological data was required. […] The largest desirable surface area for a transdermal patch is about 40 cm^2. […] One of skill would expect a different input rate or flux to maintain a steady state concentration in consideration of the rate of loss of drug in the plasma due to elimination. A confirmatory calculation for flux requires further pharmacokinetic parameters. […] The largest desirable surface area for a transdermal patch is about 40 cm^2. […], yields a release rate of […] of transdermal patch surface area.

[2] = cited from earlier work
[3] = after oral administration; cited from earlier work
plasma proteins = details: cited from earlier work
[4] = terazosin therapy; cited from earlier work

For COc1cc2nc(N3CCN(C(=O)C4CCCO4)CC3)nc(N)c2cc1OC (stereo not drawn) [terazosin, Terazosin], the dosing rate [1] is given as 216 µg/h, the removed during hemodialysis ([2]; hemodialysis) is given as 10% and the “effect of impaired renal function on elimination” value ([2]; impaired renal function) is given as “no significant effect”. The “dose excreted renally as unchanged drug” value ([2]; in vivo) was 10%, the physiological clearance rate ([2]; in vivo) was 4,800 ml/hour and the “plasma concentration at steady state” value ([2]; in vivo) was 45 ng/mL. For the same molecule, the first-pass effect ([2]; oral administration) was “minimal first-pass effect”, the “time of peak plasma levels after administration” value ([2]; oral administration) was “about 1 hour” and the bioavailability ([2]; oral dose, gastrointestinal absorption) was 90%. For the same molecule, the “effect of food on terazosin bioavailability” value ([2]; oral, presence of food) was “no significant effect”, the “delay of time to peak concentrations by food” value ([2]; oral, with food) was “about 1 hour” and the “plasma drug concentrations versus dosage” value ([2]; treatments from 1 to 5 days, dosages up to 40 mg) was “increased proportionately”. For the same molecule, the “time until antihypertensive effects are seen” value [3] was at most 15 min, the “bound to plasma proteins” value (plasma proteins) was 90-94% and the “adverse effect: asthenia (weakness, tiredness, and fatigue)” value [4] was 11%. The “adverse effect: dizziness” value [4] was 19%, the “adverse effect: drowsiness” value [4] was 5% and the “adverse effect: headache” value [4] was 16%. For the same molecule, the “adverse effect: nasal congestion” value [4] was 6%, the “adverse effect: nausea/vomiting” value [4] was 4.4% and the “adverse effect: peripheral edema” value [4] was 6%.
